Laboratory results: patent EP3964204A1, “LSD1 INHIBITORS FOR USE IN THE TREATMENT AND PREVENTION OF FIBROSIS OF TISSUES” (Université d'Aix-Marseille, priority 2020, dated 2022)

How the values were obtained:
[1] = target: T1, LSD1 (Mus musculus, UniProt Q6ZQ88); test: Cardiac LSD1 activity in explanted hearts at end of treatment (Epigentec kit); format: in vivo, mice; details: 1.5 mg / Kg intragastric gavage from 10 days after experimental infarction for three weeks, Figure 1
T1 construct: from tissue; host or cells: explanted hearts of C57BL/6 mice
Procedure: The LSD1 inhibitor (1.5 mg / Kg) was administered by intragastric gavage 10 days after experimental infarction and for three weeks. Losartan (5mg/kg) was also administered by oral gavage one week after experimental infarction and for three weeks,
The severity of the infarction was assessed by echocardiography 10 days after surgery. LSD1 activity was measured at the end of treatment (Epigentec kit) in explanted hearts. […] The ventricular wall has thickened when compared to the group treated with losartan Student -t-test ** p≤ 0.001 (Figure 2 B). Left ventricular function has improved. • 2- Ischemia -reperfusion model : transient ligation of descending anterior left coronary (30 min); followed by reperfusion

[2] = test system: C57BL/6 adult mice; test: Permanent infarction model (permanent ligation of descending anterior left coronary, no reperfusion); format: in vivo
Procedure: (§1) Both groups were subjected to experimental infarction. A control group received no treatment. Two myocardial infraction models were used, respectively a permanent infarction model and an ischemia -reperfusion model. The LSD1 inhibitor (1.5 mg / Kg) was administered by intragastric gavage 10 days after experimental infarction and for three weeks. Losartan (5mg/kg) was also administered by oral gavage one week after experimental infarction and for three weeks, • 1: experimental infarctus : • 2.: 10 days later: control echo : pretreatment echo: • 3: posttreatment echo one month later The severity of the infarction was assessed by echocardiography 10 days after surgery. LSD1 activity was measured at the end of treatment ([…] kit) in explanted hearts. […] The ventricular wall has thickened when compared to the group treated with losartan Student -t-test ** p≤ 0.001 (Figure 2 B). Left ventricular function has improved. • 2- Ischemia -reperfusion model : transient ligation of descending anterior left coronary (30 min); followed by reperfusion

[3] = test system: C57BL/6 adult mice; test: Ischemia-reperfusion model (transient ligation of descending anterior left coronary 30 min, then reperfusion); format: in vivo
Procedure: as §1, with “by reperfusion The results were similar in the ischemia / reperfusion model. […] Student -t-test **p≤ 0.001 The shortening fraction (SF) is an index of contractile activity : the contraction of the walls of ventricle is responsible of the shortening of the distance between each wall. This is calculated by dividing the distance between the walls at diastole minus the distance between the walls at systole by the distance between the walls at diastole (in %) Shortening fraction x Volume of chamber = ejection fraction (% of the chamber volume emptied at each contraction)” for “by reperfusion”

Cl.Cl.c1ccc([C@@H]2C[C@H]2NC2CCNCC2)cc1 [GSK-LSD1, N-[(1R,2S)-2-phenylcyclopropyl]piperidin-4-amine dihydrochloride]
cardiac LSD1 activity [1]: significantly reduced
Left ventricular function ([2]; 1.5 mg / Kg gavage, three weeks): has improved
left ventricular wall thickness ([2]; 1.5 mg / Kg gavage, three weeks, compared to the group treated with losartan, p≤ 0.001, Figure 2 B): has thickened
myocardial fibrosis area (left ventricle : LV) ([2]; 1.5 mg / Kg intragastric gavage from 10 days after infarction for three weeks, compared to Losartan (5mg/kg), Figure 2 A): significantly reduced fibrosis
myocardial fibrosis area (LV) ([3]; ischemia / reperfusion, 1.5 mg / Kg gavage, three weeks, compared with the non treated group, p≤ 0.001, Figure 3 A): prevented fibrosis
Left ventricular function ([3]; ischemia / reperfusion, M-mode echocardiography, compared to non-treated group and pretreatment, p≤ 0.001, Figure 3 B): fully restored left ventricular function
shortening fraction (SF) ([3]; post administration, normal SF in healthy mice 60%, post infarct 20%): 60%
